Counter-ions that a name gives are not always drawn.

In one test the target is T1, postsynaptic muscarinic cholinergic receptors on intestinal (ileal-longitudinal) smooth muscle (Cavia porcellus, UniProt H0W1Z3).
T1 construct: The longitudinal muscle, with the myenteric plexus attached, is separated from the underlying circular muscle; from tissue; host or cells: guinea pig ileum, longitudinal muscle strip with myenteric plexus attached
T1 sequence (H0W1Z3 1-590): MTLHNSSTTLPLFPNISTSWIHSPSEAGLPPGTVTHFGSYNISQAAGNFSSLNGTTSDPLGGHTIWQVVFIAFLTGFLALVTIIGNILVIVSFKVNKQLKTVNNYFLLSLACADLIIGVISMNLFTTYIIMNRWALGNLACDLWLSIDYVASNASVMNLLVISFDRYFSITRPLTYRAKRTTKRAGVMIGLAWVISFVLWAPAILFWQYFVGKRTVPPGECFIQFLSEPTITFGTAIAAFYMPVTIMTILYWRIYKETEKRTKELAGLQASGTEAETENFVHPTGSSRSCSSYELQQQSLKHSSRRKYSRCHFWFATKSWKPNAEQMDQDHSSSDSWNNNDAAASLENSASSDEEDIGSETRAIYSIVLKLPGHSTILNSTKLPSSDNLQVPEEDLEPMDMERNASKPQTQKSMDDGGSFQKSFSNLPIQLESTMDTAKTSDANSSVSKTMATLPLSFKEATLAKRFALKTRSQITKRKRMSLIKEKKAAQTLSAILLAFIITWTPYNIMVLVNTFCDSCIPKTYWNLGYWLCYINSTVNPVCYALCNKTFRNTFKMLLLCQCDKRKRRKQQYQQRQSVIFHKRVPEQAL
As to the kind of experiment: Antimuscarinic Test Protocol: antagonism of carbachol-induced contraction of ileum strips (Table 1). In kind it is cell-based, guinea pig. Particulars: carbachol as agonist, read-out: Anti-muscarinic Activity Kb. Here is the method: Antimuscarinic Test Protocol.
Male albino guinea pigs are killed by decapitation or cervical dislocation. The cavity is opened and the small intestine is removed, with about 10 cm of the terminal ileum being discarded. The intestine is placed in a Petri dish that contains Tyrodes solution (137 mM NaCl, 2.78 mM KCl, 1.8 mM CaCl2.2H2 O, 1.1 mM MgCl2.6H2 O, 0.4 mM […], 11.8 mM NaHCO3, 5.6 mM dextrose) and cut into 3-4 cm segments. The segments are preferentially taken from the aboral end of the ileum. Each segment is carefully stretched onto a glass rod 6 mm in diameter and the remaining mesenteric tissue is cut away. The longitudinal muscle, with the myenteric plexus attached, is separated from the underlying circular muscle by gently stroking with a cotton-tipped applicator soaked in Tyrodes solution on a tangent away from the shallow longitudinal incisions made parallel to the mesenteric attachment. Using gentle traction, and taking care to keep the segment moist throughout the whole procedure, the tissue is stripped from the whole length of the segment (Paton and Zar, J. Physiol. 194:13, 1968).
Tissues are suspended with 5-0 silk suture in 10 mL water-jacketed glass tissue baths containing Tyrodes solution maintained at 37° C. and aerated with 95% O2 /5% CO2. The suture connects each tissue to an isometric force-displacement transducer (Grass or Gould) coupled to a physiograph. Each preparation is suspended under a resting tension of 0.3 g and allowed to equilibrate for 36 minutes. During this period, the baths are emptied and filled every 12 minutes with 10 mL of warm Tyrodes solution. At the end of this equilibration period, each muscle strip is conditioned by adding 10 mM carbachol to the baths. The drug remains in contact with each tissue for 1-2 minutes and then is removed from the bath with 4 rapid rinses of 10 mL of warm Tyrodes solution. The preparations are allowed to recover for an additional 12 minutes before being used in experiments.
Carbachol is dissolved in saline to produce 2×10^-2 M stock concentrations. Serial dilutions (1:10) in saline or water are made from the stock solution. Appropriate volumes of these solutions are added cumulatively to the 10 mL tissue baths in order to obtain the desired bath concentrations.
Compounds that are soluble in water or saline are dissolved in these solvents to produce 2×10^-2 or 2×10^-3 M stock concentrations. Small amounts of 1 N HCl, NaOH, or 95 ethanol may be added for those agents that are not soluble in water or saline alone. […] in dimethylsulfoxide (DMSO) to produce 4×10^-2 M stock solutions. Serial dilutions (1:10) in water are made from the stock solution. Other solvents may be used when appropriate and will be specifically described in the experimental procedure. Appropriate volumes are then added to the baths in order to obtain the desired bath concentrations.
Appropriate volumes of carbachol solutions are cumulatively added to the 10 mL tissue baths to increase the concentration of carbachol in the bath step-by-step without washing out after each single dose. With each concentration step, the tissue contracts isometrically. The next concentration is added only after the preceding contraction has reached a steady value. […] The tissue is then washed with 4 rapid rinses of 10 mL of warm Tyrodes solution and allowed to recover for 12 minutes [Van Rossum et al., Arch. Int. Pharmacodyn. 143:240, (1963) and 143:299, (1963)]. Antagonism of carbachol responses in the presence of antagonist is determined by repeating the cumulative addition procedure after the tissue has been exposed to the […] for 5 minutes.
Three or four different concentrations of antagonist are studied in the same preparations. Responses are expressed relative to the maximum contraction elicited by carbachol in the absence of antagonist.
By Kb is commonly meant the affinity of an antagonist, worked out from how it opposes an agonist. With `C[n+]1cccn1CC1CC(c2ccccc2)(c2ccccc2)C(=O)O1` (centres unmarked) [Methyl dihydro-3,3-diphenyl-5-(1H-pyrazol-1-ylmethyl)-2(3H)-furanone chloride hydrate], the Kb worked out at 100 nM.

For `CC[n+]1cccn1CC1CC(c2ccccc2)(c2ccccc2)C(=O)O1` (centres unmarked) [Ethyl dihydro-3,3-diphenyl-5-(1H-pyrazol-1-ylmethyl)-2(3H)-furanone chloride], the antagonist equilibrium constant (Kb) came to 49 nM.

Take `CC[n+]1c(C)ccn1CC1CC(c2ccccc2)(c2ccccc2)C(=O)O1` (centres unmarked) [Ethyl dihydro-5-[(3-methyl-1H-pyrazol-1-yl)methyl]-3,3-diphenyl-2(3H)-furanone chloride hydrate]: the Kb is 52 nM.

Consider `Cc1ccn(CC2CC(c3ccccc3)(c3ccccc3)C(=O)O2)n1` (centres unmarked) [Dihydro-5-[(3-methyl-1H-pyrazol-1-yl)methyl]-3,3-diphenyl-2(3H)-furanone], for which the antagonist equilibrium constant (Kb) came to 239 nM.

In the case of `Cc1ccn(CC2CC(c3ccccc3)(c3ccccc3)C(=O)O2)[n+]1C` (centres unmarked) [Methyl dihydro-5-[(3-methyl-1H-pyrazol-1-yl)methyl]-3,3-diphenyl-2(3H)-furanone chloride hydrate], the Kb came out at 142 nM.

On to `Cc1cn(CC2CC(c3ccccc3)(c3ccccc3)C(=O)O2)[n+](C)c1` (centres unmarked) [Methyl dihydro-5-[(4-methyl-1H-pyrazol-1-yl)methyl]-3,3-diphenyl-2(3H)-furanone chloride hydrate], for which the antagonist equilibrium constant (Kb) worked out at 117 nM.

As to `Cc1cnn(CC2CC(c3ccccc3)(c3ccccc3)C(=O)O2)c1` (centres unmarked) [Dihydro-5-[(4-methyl-1H-pyrazol-1-yl)methyl]-3,3-diphenyl-2(3H)-furanone], the Kb was found to be 251 nM.

For `O=C1OC(Cn2cccn2)CC1(c1ccccc1)c1ccccc1` (centres unmarked) [Dihydro-3,3-diphenyl-5-(1H-pyrazol-1-ylmethyl)-2(3H)-furanone], the antagonist equilibrium constant (Kb) was 50 nM.

For the molecule `CC[n+]1cc(C)cn1CC1CC(c2ccccc2)(c2ccccc2)C(=O)O1` (centres unmarked) [Ethyl dihydro-5-[(4-methyl-1H-pyrazol-1-yl)methyl]-3,3-diphenyl-2(3H)-furanone chloride hydrate], the antagonist dissociation constant (Kb) worked out at 148 nM.

Turning to `Cc1cc(C)n(CC2CC(c3ccccc3)(c3ccccc3)C(=O)O2)n1` (centres unmarked) [Dihydro-5-[(3,5-dimethyl-1H-pyrazol-1-yl)methyl]-3.3-diphenyl-2(3H)-furanone hydrochloride], the Kb came out at 1000 nM.

Another test has as its system isolated guinea pig ileum.
Experiment: not given
The following applies: cited from earlier work.
Turning to `CN(C)CC1CC(c2ccccc2)(c2ccccc2)OC1=O` (centres unmarked) [3-[(dimethylamino)methyl]-4,5-dihydro-5,5-diphenyl-2(3H)furanone], the “prevention of contractions of isolated guinea pig ileum” value is on record as “prevents contractions of isolated guinea pig ileum”.
